In brackets after ≈: the same amount, converted by molar mass.
Tests used:
Format in all cases: physicochemical
[1] = Solubility in various media at 25° C. after 24 hours equilibration (UPLC); conditions: for final pH of the sample (in parentheses): after 24 hours equilibration
[2] = Solid-state chemical stability: degradation products by UPLC/HPLC after stress storage; conditions: for DP % (Degradation Product), Bulk (UPLC): Solid state; for DP % (Degradation Product), Amber vial (HPLC) / DP % (Degradation Product), Clear vial (HPLC): Xenon light (approx. 1200 kLuxh)
Description: (§1) Compound I, Compound I fumaric acid co-crystals and amorphous Compound I fumaric acid samples (10 mg) were placed in an open vial at 50° C./75% RH and 80° C./75% RH chamber for one week. A same amount of sample was placed in a closed vial at 50° C. and 80° C. chamber for 1 week. The samples were exposed to 100 k Lux light for 12 h at 25° C. Solids were examined by XRPD for physical stability determination and by UPLC for chemical stability determination. The color of the samples was evaluated by visual observation. Table 5 compares the stability of Compound I and its various solid forms.

[3] = Solid-state physical stability: form change by XRPD after stress storage; conditions: Solid state
Description: as §1

[4] = Dynamic Vapor Sorption (DVS) moisture absorption / hygroscopicity; conditions: for solid form after DVS: after DVS testing; for moisture absorption by DVS: at 90% RH, 25° C.; for hygroscopicity: by DVS
[5] = Crystal form after grinding, compression and wet granulation; conditions: compression and wet granulation (water and ethanol)
[6] = 0.01N HCl pH 2.0, 25° C., 24 hours equilibration
[7] = 0.1N HCl pH 1.0, 25° C., 24 hours equilibration
[8] = FaSSIF pH 6.5, 25° C., 24 hours equilibration
[9] = FeSSIF pH 5.8, 25° C., 24 hours equilibration
[10] = SGF pH 2.0, 25° C., 24 hours equilibration
[11] = acetate buffer pH 4.7, 25° C., 24 hours equilibration
[12] = borate buffer pH 10.0, 25° C., 24 hours equilibration
[13] = phosphate buffer pH 6.8, 25° C., 24 hours equilibration
[14] = water, 25° C., 24 hours equilibration
[15] = 1 week 80° C., closed container
[16] = listed as Compound I fumaric acid co-crystals (2:1)
[17] = 1 week 50° C., closed container

| SMILES | solubility [1, 6] | final pH of the sample (in parentheses) ([1]; 0.01N HCl pH 2.0) | solubility [1, 7] | final pH of the sample (in parentheses) ([1]; 0.1N HCl pH 1.0) | solubility [1, 8] | final pH of the sample (in parentheses) ([1]; FaSSIF pH 6.5) | solubility [1, 9] | final pH of the sample (in parentheses) ([1]; FeSSIF pH 5.8) | solubility [1, 10] | final pH of the sample (in parentheses) ([1]; SGF pH 2.0) | solubility [1, 11] | final pH of the sample (in parentheses) ([1]; acetate buffer pH 4.7) | final pH of the sample (in parentheses) ([1]; borate buffer pH 10.0) | final pH of the sample (in parentheses) ([1]; phosphate buffer pH 6.8) | final pH of the sample (in parentheses) ([1]; water) | DP % (Degradation Product), Bulk (UPLC) [2, 15] | DP % (Degradation Product), Bulk (UPLC) ([2]; 1 week 80° C./75% r.h.) | DP % (Degradation Product), Amber vial (HPLC) [2] | DP % (Degradation Product), Clear vial (HPLC) [2] | Bulk (XRPD) [3, 15] | also measured |
| --- | --- | --- | --- | --- | --- | --- | --- | --- | --- | --- | --- | --- | --- | --- | --- | --- | --- | --- | --- | --- | --- |
| Cc1nc(C)c(C(=O)Nc2ccc(F)c(-c3nc4ncc(-c5ncccc5C)cn4n3)c2)o1 [Amorphous Compound I Fumaric Acid (1:1), N-(4-fluoro-3-(6-(3-methylpyridin-2-yl)-[1,2,4]triazolo[1,5-a]pyrimidin-2-yl)phenyl)-2,4-dimethyloxazole-5-carboxamide] | 36 µg/mL (≈ 81.2 µM) | (2.1) | 350 µg/mL (≈ 789 µM) | (1.1) | 7 µg/mL (≈ 15.8 µM) | (5.8) | 18 µg/mL (≈ 40.6 µM) | (5.6) | 55 µg/mL (≈ 124 µM) | (2.2) | <0.1 µg/mL | (4.6) | (9.6) | (6.6) | (3.0) | 2.6% | 2.7% | 2.8% | 4.5% | no change | solubility [1, 12]: <0.1 µg/mL; solubility [1, 13]: <0.1 µg/mL; solubility [1, 14]: 0.2 µg/mL (≈ 0.451 µM) |
| Cc1nc(C)c(C(=O)Nc2ccc(F)c(-c3nc4ncc(-c5ncccc5C)cn4n3)c2)o1 [Amorphous Compound I Fumaric Acid (2:1), N-(4-fluoro-3-(6-(3-methylpyridin-2-yl)-[1,2,4]triazolo[1,5-a]pyrimidin-2-yl)phenyl)-2,4-dimethyloxazole-5-carboxamide] | 9 µg/mL (≈ 20.3 µM) | (2.0) | 180 µg/mL (≈ 406 µM) | (1.1) | 3 µg/mL (≈ 6.77 µM) | (6.1) | 13 µg/mL (≈ 29.3 µM) | (5.7) | 25 µg/mL (≈ 56.4 µM) | (2.2) | <0.1 µg/mL | (4.7) | (9,7) | (6.7) | (3.2) | 1.7% | 1.6% | 1.5% | 10.6% | no change | solubility [1, 12]: <0.1 µg/mL; solubility [1, 13]: <0.1 µg/mL; solubility [1, 14]: <0.1 µg/mL |
| Cc1nc(C)c(C(=O)Nc2ccc(F)c(-c3nc4ncc(-c5ncccc5C)cn4n3)c2)o1 [Compound I Fumaric Acid Co-crystal (2:1), N-(4-fluoro-3-(6-(3-methylpyridin-2-yl)-[1,2,4]triazolo[1,5-a]pyrimidin-2-yl)phenyl)-2,4-dimethyloxazole-5-carboxamide] | 5 µg/mL | (1.9) | 160 µg/mL | (0.8) | – | (5.9) | – | (5.5) | 30 µg/mL | (1.9) | – | (4.5) | (9.6) | (6.6) | (3.1) | 1.2% | 1.2% | 1.2% | 1.2% | no change | solid form after DVS [4, 16]: remains the same form; moisture absorption by DVS [4]: 0.12%; moisture absorption by DVS [4, 16]: 0.12%; hygroscopicity [4]: non-hygroscopic; hygroscopicity [4, 16]: non-hygroscopic; solubility compared to the solubility of the free form ([1]; FeSSIF): significantly better; solubility at 24 h ([1]; thermodynamic from solid, FeSSIF pH 5.8, 25° C., 24 hours equilibration): 17 µg/mL; DP % (Degradation Product), Bulk (UPLC) [2, 17]: 1.2%; DP % (Degradation Product), Bulk (UPLC) ([2]; 1 week 50° C./75% r.h.): 1.2%; Bulk (XRPD) [3, 17]: no change; Bulk (XRPD) ([3]; 1 week 50° C./75% r.h.): no change |
| Cc1nc(C)c(C(=O)Nc2ccc(F)c(-c3nc4ncc(-c5ncccc5C)cn4n3)c2)o1 [Form B, N-(4-fluoro-3-(6-(3-methylpyridin-2-yl)-[1,2,4]triazolo[1,5-a]pyrimidin-2-yl)phenyl)-2,4-dimethyloxazole-5-carboxamide] | 21 µg/mL (≈ 47.4 µM) | (2.1) | 170 µg/mL (≈ 383 µM) | (1.0) | 7 µg/mL (≈ 15.8 µM) | (5.7) | 16 µg/mL (≈ 36.1 µM) | (5.6) | 63 µg/mL (≈ 142 µM) | (1.9) | 2 µg/mL (≈ 4.51 µM) | (4.6) | (8.1) | (6.5) | (2.9) | 1.7% | 1.7% | 1.7% | 1.6% | no change | solid form after DVS [4]: remains the same form; moisture absorption by DVS [4]: 0.3%; hygroscopicity [4]: non-hygroscopic; stability and solubility (24 h) in aqueous media ([1]; aqueous media, 24 h, versus free form hydrate): comparable to the free form hydrate; solubility compared to the solubility of the free form ([1]; biological fluids SGF, FaSSIF and FeSSIF): significantly better; solubility [1, 12]: 2 µg/mL (≈ 4.51 µM); solubility [1, 13]: 2 µg/mL (≈ 4.51 µM); solubility [1, 14]: 4 µg/mL (≈ 9.02 µM); crystal form after grinding, compression and wet granulation [5]: did not alter the crystal form; DP % (Degradation Product), Bulk (UPLC) [2, 17]: 1.8%; DP % (Degradation Product), Bulk (UPLC) ([2]; 1 week 50° C./75% r.h.): 1.7%; Bulk (XRPD) [3, 17]: no change; Bulk (XRPD) ([3]; 1 week 50° C./75% r.h.): no change |
| Cc1nc(C)c(C(=O)Nc2ccc(F)c(-c3nc4ncc(-c5ncccc5C)cn4n3)c2)o1 [Form C, N-(4-fluoro-3-(6-(3-methylpyridin-2-yl)-[1,2,4]triazolo[1,5-a]pyrimidin-2-yl)phenyl)-2,4-dimethyloxazole-5-carboxamide] | – | – | 240 µg/mL (≈ 541 µM) | (1.1) | – | (5.5) | – | (5.5) | 46 µg/mL (≈ 104 µM) | (2.0) | – | (4.4) | – | (6.4) | (2.9) | 1.8% | 1.8% | 1.8% | 1.8% | no change | moisture absorption by DVS [4]: approximately 0.6%; hygroscopicity [4]: slightly hygroscopic; DP % (Degradation Product), Bulk (UPLC) [2, 17]: 1.8%; DP % (Degradation Product), Bulk (UPLC) ([2]; 1 week 50° C./75% r.h.): 1.7%; Bulk (XRPD) [3, 17]: no change; Bulk (XRPD) ([3]; 1 week 50° C./75% r.h.): no change |

— US11891401B2, “Solid forms of N-(4-fluoro-3-(6-(3-methylpyridin-2-yl)-[1,2,4]triazolo[1,5-a]pyrimidin-2-yl)phenyl)-2,4-dimethyloxazole-5-carboxamide” (NOVARTIS AG, priority 2018, dated 2024)
